Measured values from patent US5155099A, “Alkylphosphonoserines and pharmaceutical compositions useful as cytostatic agents” (Hafslund Nycomed Pharma Aktiengesellschaft, priority 1988, dated 1992).

Tested on: Ehrlich ascites tumor cells
Experiment: Concentration-dependent inhibition of growth of Ehrlich ascites tumor cells (antiproliferative action)
Format: cell-based
Text: The novel alkylphosphonoserines have a strong cytostatic and virustatic action. In order to determine the cytostatic action, the antiproliferative action was investigated in Ehrlich ascites tumor cells. It can be seen here that the compounds according to the invention have excellent cytostatic action. They can therefore be employed as cytostatics or virustatics, alone or in a mixture with other active substances, in the form of customary pharmaceutical preparations.
Concentration-dependent Inhibition of Growth of Ehrlich Ascites Tumor Cells

`CCCCCCCCCCCCCCCCP(=O)(O)OC[C@H](N)C(=O)O` [n-Hexadecyl phosphono-L-serine, n-Hexadecylphosphono-L-serine] showed an inhibition at 100 µM (Concentration 1 × 10^-4 M) of 89%, an inhibition at 10 µM (Concentration 1 × 10^-5 M) of 13% and an inhibition at 30 µM (Concentration 3 × 10^-5 M) of 45%. For the same compound, the inhibition at 3 µM (Concentration 3 × 10^-6 M) was 9%.
